The subject of one data set is MC3T3-E1 cells. Nature of the data set: Alkaline phosphatase (ALP) activity in MC3T3-E1 cells. In kind it is cell-based. Particulars: Mus musculus, 72 h; 1 μM compound, 3 days, MC3T3-E1 cell; read-out: ALP activity (1 μM, % of Control) MC3T3-E1 cell. As to the method: Differentiation and activity of osteoblasts were indirectly evaluated by measuring an ALP activity having a close relationship with osteogenesis.
Osteoblasts (Calvarial cells) prepared in Experimental Example 1 and MC3T3-E1 cells (available from RIKEN Cell Bank, Japan) were collected in α-MEM supplemented with 10% FBS, followed by cell counting. The cells were dispensed into 24-well cultureware at a density of 2×10^4 cells/well. After culturing of the cells for 24 hours, the culture media were discarded and replaced with fresh media in which test compounds were diluted to a concentration of 1 μM (1 mL/well). In addition, the vehicle control group containing 0.1% DMSO was also treated. […] When the experiment was terminated, the supernatant was removed and the cells were washed three times with cold phosphate buffer at 4°. 0.2% Triton X-100 was added to the washed cells which were then subjected to three cycles of freezing at −70° and thawing at room temperature for the complete lysis of cells. The cell extracts were pooled and centrifuged to collect the cell supernatant which was used for the measurement of ALP activity and proteins. The protein concentration was measured using a BCA assay kit (manufactured by Sigma-Aldrich). For the measurement of ALP activity, p-nitrophenylphosphate was added to the cell supernatant which was then incubated at 37° for 30 minutes, and the reaction was terminated with the addition of 50 μL of 0.2N sodium hydroxide. The standard curve was plotted at the absorbance of 405 nm using p-nitrophenol as a standard material and then the absorbance of test materials thus reacted was measured to determine the production amount of p-nitrophenol.
The ALP activity was calculated by dividing the amount of p-nitrophenol produced from each test material by the protein amount and the reaction time. Therefore, the unit of ALP activity was given in terms of p-nitrophenol/μg protein/min. The results are given in Tables 28-1 and 28-2 where the ALP activity unit of each test material was given in terms of % change through the comparison between the individual test materials and the vehicle control group.

In data set [1] the test system is Osteoblasts (Calvarial cells). The note with it: ICR, mouse, 72 h, 1 μM.
For data set [2], the system named is formation of osteoclasts in co-culture of bone marrow cells and osteoblasts. Nature of the data set: Osteoclastogenesis inhibition via co-culture system (TRAP staining). Format: cell-based, mice. Particulars: Mus musculus, Osteoclast, 168 h; 1 μM compound, 7 days co-culture, TRAP-positive multinucleated osteoclasts vs vehicle control. Put shortly: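 Bone marrow cells from male ddY mice were co-cultured with osteoblasts for 7 days in α-MEM/10% FBS with 10^−8 M 1α,25-dihydroxyvitamin D3 and dexamethasone. Compound was present at 1 μM final and refreshed every 2–3 days. TRAP-positive cells with 6–7 nuclei were counted, with % inhibition relative to DMSO vehicle (n=4).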

The test system of data set [3] is Osteoblasts (Calvarial cells). Kind of data set: Alkaline phosphatase (ALP) activity in osteoblasts (Calvarial cells). In kind it is cell-based, mice. Particulars: Mus musculus, 72 h; 1 μM compound, 3 days, Calvarial cell; read-out: ALP activity (1 μM, % of Control) Calvarial cell. The procedure, abridged:
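Primary calvarial osteoblasts or MC3T3-E1 cells in α-MEM with 10% FBS were treated with 1 μM compound, against a 0.1% DMSO vehicle. Cell lysates were incubated with p-nitrophenylphosphate at 37° for 30 minutes and read at 405 nm. ALP activity was expressed as p-nitrophenol/μg protein/min and reported as % change versus vehicle.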

Molecules are shown by their SMILES.

As for `N#Cc1cccc(Nc2nc(NCCCn3ccnc3)ccc2[N+](=O)[O-])c1` [Compound 53, 2-[3-cyanophenylamino]-6-[(3-imidazol-1-yl)propylamino]-3-nitropyridine], the results for the activity at 1 µM (in the data set on MC3T3-E1 cells; in data set [3]) were 121% and 134%, respectively. In data set [1], the “Cell viability (%) Calvarial cell” value was 115%. Also, 1 µM produced 97% inhibition in data set [2].

(Values after US20110306606A1, “NOVEL 2,6-SUBSTITUTED-3-NITROPYRIDINE DERIVATIVE, METHOD FOR PREPARING SAME, AND PHARMACEUTICAL COMPOSITION INCLUDING SAME” (priority 2008, published 2011).)
